One experiment relates to advanced T1D in NOD mice. From the text: Female non-obese diabetic (NOD) mice, which spontaneously develop autoimmune diabetes that mimics human T1D, are used to test the ability of the Hsp60 peptides and peptide analogs to induce regeneration of pancreatic beta cells. The NOD model is described, for example in Elias and Cohen (Lancet 1994, 343, 704-706). Female NOD mice raised under specific pathogen free (SPF) conditions develop insulitis around 4 weeks of age. […] In addition, the actual appearance of new beta cells, detected by increased C-peptide levels is measured in the revised protocol and not just preservation of initial C-peptide levels as in the original protocol.
Groups of 7 weeks old NOD/ShiLtJ mice (Jackson Number 001976, 10 mice per group) were used. Fasting blood glucose was monitored three times per week during all the treatment period, using methods known in the art. After about 12-20 weeks, when blood glucose reaches a level of […] the mice are treated with insulin in order to keep them alive and divided randomly between the following group treatments: • 1. no treatment; • 2. […]® only, once a week; • 3.
Fasting glucose was measured Hemoglobin A1C and C-peptide levels were measured at the end of treatment, up to six months, depending on the conditions of the control and treated animals.
Histology was performed to detect and count beta cells in pancreatic islets and to observe islet infiltrates. Histology was performed by staining for insulin and detection of appearance of beta cells, as described for example in Lumelsky et al, Science 2001, 292, 1389-1394.

For another experiment, the system named is NOD mice. As to conditions: subcutaneous administration; cited from earlier work.

Read-outs that look alike come from different tables or passages of the source. Where no end group is shown, it is not given here.

For the substance VLGGGVALLRVIPALDSLTPANED [DiaPep277], the “Islets per whole section” value in the experiment on advanced T1D in NOD mice (100 μg in INTRALIPID, SC, 1 injection/week) stood at 3; in the experiment with advanced T1D in NOD mice (100 μg in PBS, IP, 3 injections/week) it was 2; in the experiment on advanced T1D in NOD mice (200 μg in INTRALIPID, SC, 1 injection/week), 1. For the same substance, in the experiment with advanced T1D in NOD mice (treated mice overall, Table 1), the “Lymphocyte infiltrates compared to control mice treated with placebo” value is on record as “less lymphocyte infiltrates”. In addition, the “Number of beta islets compared to control mice treated with placebo” value in the experiment with advanced T1D in NOD mice (treated mice overall, Table 1) is reported as “increased number of beta islets”.

With “p277: specific peptide of human Hsp60, one of the immunodominant epitopes in autoimmune diabetes; native cysteines at positions 6 and 11 (VLGGGCALLRCIPALDSLTPANED; UniProt P10809 437-460, looked up, fragment)”, in the experiment with NOD mice, the “Development of diabetes in NOD mice” value was “prevented the development of diabetes” and the “T-cell reactivity to beta cell antigens” value is given as “down-regulated”.

Values taken from patent US20150011471A1, “REGENERATION OF ISLET BETA CELLS BY HSP60 DERIVED PEPTIDES” (Yeda Research and Development Co. Ltd., priority 2012, published 2015).
